The results in this text go back to patent publication US8129184B2, “Cancer stem cell antigen vaccines and methods” (Cedars-Sinai Medical Center, priority 2006, dated 2012).

Experiment [1] has as its system 9L sphere and monolayer cells. The experiment in a line: WST-1 viability of 9L neurospheres and monolayer cells exposed to chemotherapeutic agents. The format is cell-based, rat. As to conditions: 125-1,000 μM, 2 days. How it is done: To compare the differential proliferation rates and resistance to chemotherapeutic agents, 2,000 healthy 9L sphere and monolayer cells were exposed to either Dulbecco's modified Eagle's medium/F-12 medium containing 10% fetal bovine serum (FBS), or […] stock solution of Temozolamide or Carboplatin dissolved in PBS at concentrations of 1,000 μM, 500 μM, 250 μM, and 125 μM for 2 days. The viability of the cells was scored by measurement of the absorption of formazan dye (the amount of formazan dye formed directly correlates to the number of metabolically active cells) using the cellular proliferation assay WST-1 (Roche Molecular Biochemicals, Mannheim, Germany). Formazan was measured with the use of a microplate reader (Tecan) and spectrophotometer set at a wavelength of 440 nm and a reference wavelength of 890 nm. Cellular viability was determined by exposing cells to WST-1 for 4 hours, and calculating the percentage of viable cells. Proliferation was also assessed by using manual cell counting after 7 days in culture, with an initial cellular concentration of 100,000 cells/mL in a […] flask.

The subject of experiment [2] is CD133 positive cells isolated from No. 66. Nature of the experiment: WST-1 Cell Proliferation Assay, drug sensitivity of CD133 positive vs CD133 negative cells, No. 66. As to conditions: No. 66, 48 hours, 10% FBS/F-12/DMEM. Type of experiment: cell-based, human. How it is done: FIGS. 10A-10D are line graphs depicting drug sensitivity of CD133 positive cancer stem cells derived from patient No. 66. Tumor cells of No. 66 were cultured in FBS/F-12/DMEM medium for 4 passages. Both CD133 positive and negative tumor cells were collected by FACS sorting. 1×10^4 cells/well were plated in 96-well plate and treated with the indicated concentrations of VP-16, Taxol, temozolomide, and carboplatin for 48 hours in FBS/F-12/DMEM medium. * indicates p<0.05 compared to autologous CD133 negative cells. Data are representative of two independent experiments. (10A) VP16; (10B) Taxol; (10C) temozolomide; (10D) carboplatin.
(§1) To determine whether CD133 positive cancer stem cells were resistant to chemotherapeutic agents, the WST-1 Cell Proliferation Assay was used to examine the drug sensitivity of CD133 positive cells and CD133 negative cells (both collected by FACS sorting from the three glioblastoma patients' primary cultured tumor cells as described above). CD133 positive and negative cells were exposed to conventional chemotherapeutic agents, temozolomide, carboplatin, VP-16 or taxol at various concentrations, for up to 48 hours in 10% FBS/F-12/DMEM culture medium. Temozolomide was supplied by the Schering-Plough Research Institute (Kenilworth, N.J.) and was dissolved in DMSO (Sigma Chemical Co., St Louis, Mo.) at 100 mM stock solution. Carboplatin, etoposide (VP-16) and paclitaxel (Taxol) were obtained from Sigma-Aldrich (St. Louis, Mo.).
On the technique in general: Tetrazolium assays rely on reduction of a dye to a coloured formazan, in cell work by metabolically active cells.

Experiment [3] relates to CD133 positive cells isolated from No. 377. The experiment in a line: WST-1 Cell Proliferation Assay, drug sensitivity of CD133 positive vs CD133 negative cells, No. 377. As to conditions: 48 hours. Type of experiment: cell-based, human. How it is done: (§2) FIGS. 11A-11C are a set of line graphs depicting drug sensitivity of CD133 positive cancer stem cells derived from patient Nos. 377 and 1049. Tumor cells of patient No. 377 and No. 1049 were cultured in FBS/F-12/DMEM medium for 3 passages. Both CD133 positive and negative tumor cells were collected by FACS sorting. 1×10^4 cells/well were plated in 96-well plate and treated with the indicated concentrations of carboplatin (11A and 11C) or VP-16 (11B) for 48 hours in FBS/F-12/DMAEM medium. * indicates p<0.05 compared to autologous CD133 negative cells. Data are representative of two independent experiments.
as §1, with “Carboplatin, etoposide (VP-16) and paclitaxel (Taxol) were obtained from Sigma-Aldrich (St. Louis, Mo.).” left out

Experiment [4] concerns CD133 positive cells isolated from No. 1049. Nature of the experiment: WST-1 Cell Proliferation Assay, drug sensitivity of CD133 positive vs CD133 negative cells, No. 1049. Type of experiment: cell-based, human. As to conditions: No. 1049, at 200 μM, 48 hours. How it is done:
as §2
as §1, with “Carboplatin, etoposide (VP-16) and paclitaxel (Taxol) were obtained from Sigma-Aldrich (St. Louis, Mo.).” left out

Entries after “also recorded” stand apart in the source; their conditions may differ.

Take `N.N.O=C([O-])C1(C(=O)[O-])CCC1.[Pt+2]` [carboplatin]: the “resistance of neurospheres to the agent compared to monolayer cells” value in experiment [1] is “significantly (P<0.05) greater resistance; also recorded: significantly more resistant”. In addition, the “drug resistance of CD133 positive cells compared to autologous CD133 negative cells” value in experiment [2] is on record as “dramatic drug resistance”. In addition, the “resistance of CD133 positive cells compared to autologous CD133 negative cells” value in experiment [3] (No. 377, all concentrations tested) is “significant resistance”; in experiment [4], “significant resistance”.

Consider `COc1cc([C@@H]2c3cc4c(cc3[C@@H](O[C@@H]3O[C@@H]5CO[C@@H](C)O[C@H]5[C@H](O)[C@H]3O)[C@H]3COC(=O)[C@H]23)OCO4)cc(OC)c1O` [VP-16, etoposide], for which the “drug resistance of CD133 positive cells compared to autologous CD133 negative cells” value in experiment [2] was “dramatic drug resistance”. The “resistance of CD133 positive cells compared to autologous CD133 negative cells” value in experiment [3] (No. 377, at 200 μM) was “significant resistance”.

Regarding `CC(=O)O[C@H]1C(=O)[C@@]2(C)[C@H]([C@H](OC(=O)c3ccccc3)[C@]3(O)C[C@H](OC(=O)[C@H](O)[C@@H](NC(=O)c4ccccc4)c4ccccc4)C(C)=C1C3(C)C)[C@]1(OC(C)=O)CO[C@@H]1C[C@@H]2O` [Taxol, paclitaxel], the “drug resistance of CD133 positive cells compared to autologous CD133 negative cells” value in experiment [2] was “dramatic drug resistance”.
